Data on three molecules can be found in patent US9937260B2, “Curcumin conjugates for treating and preventing cancers” (BOARD OF SUPERVISORS OF LOUISIANA STATE UNIVERSITY AND …, priority 2008, dated 2018).

The test system of series [1] is MIAPaCa-2, BxPC-3 and PANC-1 pancreatic cancer cells. Briefly: Modified MTT cytotoxicity assay. Format: cell-based, human. The protocol:
Pancreatic cell lines MIAPaCa-2, BxPC-3, and PANC-1 were obtained from the American Type Culture Collection. All cell lines were cultured in DMEM supplemented with 10% FBS, 100 units/mL penicillin, and 100 μg/mL streptomycin. The presence and location of LHRH-receptors in these pancreatic cancer cell lines was determined by immunochemical methods.
The cytotoxicity of the peptides was determined with a modified MTT (3-(4, 5-dimethylthiazol-2-yl)-2, 5-diphenyltetrazolium bromide) assay. Briefly, MIAPaCa-2, BxPC-3 and PANG-1 cells (2000/well) were separately incubated in 96-well plates in triplicate in a cell growth medium with different concentrations of LHRH, LHRH-Curcumin, Curcumin, and LHRH-Phor21. Three wells served as controls, each receiving an equivalent volume of medium. After 24 hours, an MTT solution (5 mg/ml in PBS) was added to each well and incubated for 2 hours at 37° C., followed by extraction with buffer (20% SDS and 50% dimethylformamide). The cells were incubated overnight at 37° C. Optical absorbance of the cell suspension was then measured at 590 nm using an MRX Revelation 96-well multiscanner (Dynex Technologies, Chantilly, Va.). From these measurements the IC50 doses of the peptides were calculated. […] Values given are mean±SD of triplicate cultures.

In series [2] the test system is advanced pancreatic cancer. Conditions: cited from earlier work.
For series [3], the system named is luciferase-transfected MIAPaCa-2 xenograft tumors. Briefly: Human pancreatic cancer xenograft in female athymic nude mice. The series is classed as in vivo. The source says: MIAPaCa-2, a cell line expressing the LHRH receptor, was then used for in vivo experiments. We stably transfected MIAPaCa-2 cells with a gene encoding luciferase. We used the transfected cells to produce a pancreatic cancer xenograft mouse model.
Forty-eight female nude mice (athymic Balb/c, 4-5 weeks old) were obtained from a commercial vendor (Charles River Laboratories, Wilmington, Mass.), and caged individually in a room maintained at constant temperature and humidity under a 12-h light and darkness cycle, and fed a regular, autoclaved chow diet with water ad libitum. […]
After the tumors were established (100-250 mm^3), the 48 mice were randomized into six different treatment groups (n=8 mice per group): (1) LHRH alone, (2) LHRH-Curcumin, (3) LHRH-Phor21, (4) unconjugated LHRH and Phor21, (5) vehicle control, and (6) a control group of tumor-bearing mice that were necropsied before treatment (baseline controls). […] Tumor volumes and mice body weights were measured twice weekly, and mice were necropsied one week after the last treatment. At necropsy, tumors, ovaries, kidneys, pancreases, lungs, spleen, several bones, and liver were removed and weighed, and metastastic cell numbers were measured by luciferase assay. The tumor volumes and weights were analyzed by one-way ANOVA, and compared among groups using an unpaired Student's t-test. […]

Another series deals with caspase-3/7. Put plainly: Apo-ONE homogenous caspase-3/7 assay in MIAPaCa-2 cells. The series is classed as cell-based, human. Particulars: 5 μM, 24 hours, p<0.05, FIG. 6. The protocol:
We also directly measured the effect of LHRH-curcumin on caspase 3 enzyme activity with the Apo-ONE homogenous caspase-3/7 assay kit (Promega, Madison, Wis.). This assay uses a profluorescent substrate with an optimized, bifunctional cell lysis/activity buffer. MIAPaCa-2 cells were treated in triplicate (10,000 cells per well) with the free peptide LHRH, or with the LHRH-Curcumin conjugate, in each case at a 5 μM concentration, and incubated for 24 hours. Following the 24 hour incubation, the Apo-ONE homogenous caspase-3/7 assay was performed according to the manufacturer's protocol. The buffer and 100 μL Apo-ONE caspase-3/7 assay reagent were mixed and added to the samples. Cells were then incubated for an additional hour prior to fluorescence measurements. Upon sequential cleavage and removal of the Asp-Glu-Val-Asp peptide (SEQ ID NO. 10) by caspase-3/7 activity, the rhodamine 110 leaving group became intensely fluorescent with excitation at 499 nm and an emission maximum at 512 nm. The excitation/emission was recorded on a FlexStation (Molecular Devices, Sunnyvale, Calif.) with softMax Pro version 4.8 software. The experiment was conducted in duplicate. Statistical significance was determined by a two-tailed Students t-test, using GraphPad Prism software version 5.0.

Non-standard residues stand in square brackets, D forms with d. Residues, ends and D or L forms follow the SMILES beside them. pGlu = O=C1CC[C@@H](C(=O)O)N1

`COc1cc(/C=C/C(=O)CC(=O)/C=C/c2ccc(O)c(OC)c2)ccc1O` [Curcumin, diferuloylmethane]: the “inhibition of proliferation of pancreatic cancer cells” value in series [1] (24 hours, MTT, FIGS. 2(A)-2(C)) was “inhibited the proliferation of pancreatic cancer cells”. In addition, the bioavailability result in series [2] (oral administration) is “poor bioavailability”. For the same molecule, in series [2] (oral, advanced pancreatic cancer), the “patients with clinical biological activity” value is on record as 2 of 21.

With `CC(C)C[C@H](NC(=O)CNC(=O)[C@H](Cc1ccc(O)cc1)NC(=O)[C@H](CO)NC(=O)[C@H](Cc1c[nH]c2ccccc12)NC(=O)[C@H](Cc1c[nH]cn1)NC(=O)[C@@H]1CCC(=O)N1)C(=O)N[C@@H](CCCNC(=N)N)C(=O)N1CCC[C@H]1C(=O)NCC(=O)N[C@@H](CCCCN)C(=O)N[C@@H](Cc1ccccc1)C(=O)N[C@@H](C)C(=O)N[C@@H](CCCCN)C(=O)N[C@@H](Cc1ccccc1)C(=O)N[C@@H](C)C(=O)N[C@@H](CCCCN)C(=O)N[C@@H](CCCCN)C(=O)N[C@@H](Cc1ccccc1)C(=O)N[C@@H](C)C(=O)N[C@@H](CCCCN)C(=O)N[C@@H](Cc1ccccc1)C(=O)N[C@@H](C)C(=O)N[C@@H](CCCCN)C(=O)N[C@@H](CCCCN)C(=O)N[C@@H](Cc1ccccc1)C(=O)N[C@@H](C)C(=O)N[C@@H](CCCCN)C(=O)N[C@@H](Cc1ccccc1)C(=O)N[C@@H](C)C(=O)N[C@@H](CCCCN)C(=O)O` [LHRH-Phor21] ([pGlu]HWSYGLRPGKFAKFAKKFAKFAKKFAKFAK-OH; C-terminus assumed), the relative cytotoxicity result in series [1] is given as “greater cytotoxicity than that of LHRH-Curcumin”. In series [3] (FIG. 5(D)), the “mice body weights as indicators of potential toxicity” value was “not significantly different from control”. The side effects result in series [3] (tail vein injections) is “some inflammation was seen in the mice tails at the site of injections”.

In the case of “pGlu-His-Trp-Ser-Tyr-Gly-Leu-Arg-Pro-Gly [LHRH]”, the caspase-3/7 activity entry with caspase-3/7 is on record as “significantly increased”.
